Assay results published in US20260221482A1, “REDOX FLOW BATTERY” (CAMBRIDGE ENTERPRISE LIMITED, priority 2023, published 2026).

Experiments:
Format in all cases: physicochemical
[1] = Cyclic voltammetry in N2 purged 0.1 M NaCl aqueous solutions; conditions: 1 mM
Procedure: Cyclic voltammetry experiments were carried out at 25° C. in N2 purged 0.1 M NaCl aqueous solutions with a Metrohm Eco Chemie Autolab PGSTAT12 potentiostat, working on GPES 4.9 software. A three-electrode configuration was used with a 3 mm or 1.6 mm glassy carbon working electrode, a platinum counter electrode, and RE-5B Ag/AgCl BASI reference electrode. The glassy carbon electrode was polished before each measurement using a 0.05 μm alumina-H2O slurry on a polishing cloth. CV was performed at 1 mM concentrations of the respective compound using a scan rate of 20 mV s^−1.

[2] = Rates of electron transfer
[3] = EPR and CV modelling studies of redox equilibria (comproportionation, π-dimerisation); conditions: for Kc from CV: comproportionation equilibrium constant from CV curve fitting; for Kd: equilibrium constant of π-dimerisation of singly reduced form, estimated at 50% SOC; for Kc, obs from EPR: observed comproportionation equilibrium constant, fit of spin counting radical fraction
Procedure: An analysis of compounds 10, 11, and 13 associated redox equilibria was carried out. Expressing the two single electron reductions as a comproportionation equilibrium with an equilibrium constant of comproportionation, Kc, an equation for radical fraction as a function of battery SOC was obtained.
The difference between redox events is related to the comproportionation equilibrium constant Kc by:
For the compounds comproportionation equilibrium:
fits to experimental radical concentration data were obtained by:
Where n is the number of electrons that have been removed from the system, starting from 100% SOC and x is the fraction of radicals.
For π-dimerisation equilibria, Kd values were estimated as follows. At 50% SOC, 1 electron equivalent of the starting concentration of viologen, V0, has been added to create reduced species, thus giving the previous result:
As the initial concentration (V0), Kc and the radical concentration (V^3+·) at this state of charge is known, the dimerisation constant can be calculated with:
This equation was used to fit experimental radical fraction data obtained by the EPR-based method of spin counting, from which the observed comproportionation equilibrium constant Kc,obs was extracted. Upon fitting, Kc,obs values of 0.75, 0.021 and 0.0021 were found for 10, 11, and 13, respectively (Table 2).
The equation was also used for CV curve fitting, from which much better agreement with experimental data was obtained. Relating the difference in first and second redox events obtained by CV curve fitting to Kc, ‘true’ Kc values could be estimated and compared to Kc,obs values. Respective Ko values for 10, 11, and 13 were 3.2×10^5, 1.3 and 2.9 (see Table 2)—substantially higher than the Kc,obs values. […] The strongest candidates for these are dimerisation equilibria.

[4] = In situ DOSY NMR of flowing electrolyte at various SOCs; conditions: diffusivity
Procedure: Pseudo-2D NMR experiments were performed on the flowing electrolyte solution by direct excitation with a 90° radiofrequency pulse. Each NMR spectrum is acquired by collecting eight free induction decays with a recycle delay of 15 s. The pulse width for a 90° pulse was 27 μs at 30 W. All spectra were referenced to the water chemical shift at 4.79 ppm. NMR data were processed using TopSpin 3.6.3 (Bruker). EPR data were processed using EasySpin version 5.2.30. Electrochemical data were processed using EC-lab 11.36 (BioLogic).
The flow was stopped during the acquisition period (12 min) to carry out the DOSY NMR.
In situ DOSY NMR experiments carried out for 10, 11, and 13 at 0%, 50%, and 100% SOC (Table 1).

[5] = Additional cyclic voltammetry under nitrogen and under air; conditions: 1 mM, 0.1 M NaCl
Procedure: Cyclic voltammetry experiments were carried out for aqueous solutions of compound 20 and 10 at 25° C. and a concentration of 1 mM in 0.1 M NaCl with a Metrohm Eco Chemie Autolab PGSTAT12 potentiostat, working on GPES 4.9 software. Where the CV was carried out under nitrogen the solution was purged with nitrogen. A three-electrode configuration was used with a 3 mm glassy carbon working electrode, a platinum counter electrode, and RE-5B Ag/AgCl BASI reference electrode. The glassy carbon electrode was polished before each measurement using a 0.05 μm alumina-H2O slurry on a polishing cloth. CV was performed using a scan rate of 20 mV s^−1.

C[N+](C)(C)CCC[n+]1ccc(-c2c3ccccc3c(-c3cc[n+](CCC[N+](C)(C)C)cc3)c3ccccc23)cc1 [Compound 15]
redox reversibility by cyclic voltammetry [1]: electrochemically irreversible

O=O [Compound O2, dioxygen]
rate of electron transfer k0 [2]: 0.00084 cm/s

C[N+](C)(C)CCC[n+]1ccc(-c2ccc(-c3cc[n+](CCC[N+](C)(C)C)cc3)c3ccccc23)cc1 [Compound 12]
redox reversibility by cyclic voltammetry [1]: reversible redox processes

C[N+](C)(C)CCC[n+]1ccc(-c2cc[n+](CCC[N+](C)(C)C)cc2)cc1 [Compound 10]
redox reversibility by cyclic voltammetry [1]: reversible redox processes | reversible potential, first reduction ([1]; vs SHE, 25° C., 20 mV s^−1): −0.35 V | reversible potential, second reduction ([1]; vs SHE, 25° C., 20 mV s^−1): −0.68 V | average Kc extracted from the radical concentration [3]: 0.7 | Kc from CV [3]: 3.2×10^5 | Kd [3]: 0.28 mM⁻¹ | Kc, obs from EPR [3]: 0.75 | D at 0% SOC [4]: 3.6 ± 0.1 ×10^−10 m^2 s^−1 | D at 50% SOC [4]: 3.6 ± 0.2 ×10^−10 m^2 s^−1 | D at 100% SOC [4]: 3.4 ± 0.1 ×10^−10 m^2 s^−1

C[N+](C)(C)CCC[n+]1ccc(-c2ccc(-c3cc[n+](CCC[N+](C)(C)C)cc3)cc2)cc1 [Compound 11]
redox reversibility by cyclic voltammetry [1]: reversible redox processes | rate of electron transfer k0 [2]: 0.0198 cm/s | average Kc extracted from the radical concentration [3]: 0.2 | Kc from CV [3]: 1.3 | Kd [3]: 11 mM⁻¹ | Kc, obs from EPR [3]: 0.021 | D at 0% SOC [4]: 3.1 ± 0.1 ×10^−10 m^2 s^−1 | D at 50% SOC [4]: 2.4 ± 0.2 ×10^−10 m^2 s^−1 | D at 100% SOC [4]: 1.6 ± 0.1 ×10^−10 m^2 s^−1

C[N+](C)(C)c1ccc(-[n+]2ccc(-c3cc[n+](-c4ccc([N+](C)(C)C)cc4)cc3)cc2)cc1 [Compound 20]
tolerance to oxygen (voltammogram under nitrogen vs under air) [5]: highly tolerant to the presence of oxygen | reversible reduction potential, first ([5]; vs SHE, 25° C., 20 mV s^−1): −0.147 V | reversible reduction potential, second ([5]; vs SHE, 25° C., 20 mV s^−1): −0.386 V

C[N+](C)(C)CCC[n+]1ccc(-c2ccc(-c3ccc(-c4cc[n+](CCC[N+](C)(C)C)cc4)s3)s2)cc1 [Compound 18]
redox reversibility by cyclic voltammetry [1]: reversible redox processes

C[N+](C)(C)CCC[n+]1ccc(-c2ccc3cc(-c4cc[n+](CCC[N+](C)(C)C)cc4)ccc3c2)cc1 [Compound 13]
redox reversibility by cyclic voltammetry [1]: reversible redox processes | average Kc extracted from the radical concentration [3]: 0.002 | Kc from CV [3]: 2.9 | Kd [3]: 76 mM⁻¹ | Kc, obs from EPR [3]: 0.0021 | D at 0% SOC [4]: 2.8 ± 0.1 ×10^−10 m^2 s^−1 | D at 50% SOC [4]: 1.9 ± 0.2 ×10^−10 m^2 s^−1 | D at 100% SOC [4]: 2.1 ± 0.5 ×10^−10 m^2 s^−1

C[N+](C)(C)CCC[n+]1ccc(-c2ccc(-c3cc[n+](CCC[N+](C)(C)C)cc3)s2)cc1 [Compound 17]
redox reversibility by cyclic voltammetry [1]: reversible redox processes | reversible potential, second reduction ([1]; vs SHE, 25° C., 20 mV s^−1): −0.67 V | rate of electron transfer k0 [2]: 0.0028 cm/s

C[N+](C)(C)CCC[n+]1ccc(-c2ccc3ccc(-c4cc[n+](CCC[N+](C)(C)C)cc4)cc3c2)cc1 [Compound 14]
redox reversibility by cyclic voltammetry [1]: does not have a reversible potential

C[N+](C)(C)CCC[n+]1ccc(-c2cccc(-c3cc[n+](CCC[N+](C)(C)C)cc3)n2)cc1 [Compound 19]
redox reversibility by cyclic voltammetry [1]: does not have a reversible potential

C[N+](C)(C)CCC[n+]1ccc(-c2ccc(-c3ccc(-c4cc[n+](CCC[N+](C)(C)C)cc4)cc3)cc2)cc1 [Compound 16]
redox reversibility by cyclic voltammetry [1]: electrochemically irreversible
